Assay results: patent US20170000804A1, “Methods and Compositions for Inhibiting Mitochondrial Trafficking” (The Wistar Institute of Anatomy and Biology, priority 2015, published 2017)

Assays:
PC3 cells [1] = assay: Tumor cell invasion across Matrigel-coated Transwell inserts; format: cell-based, human; conditions: for effect on tumor cell invasion in the presence of PI3K therapy: with PX-866, Matrigel, Antimycin A 30 μM, Oligomycin 2.5 μM, Rotenone 4 μM, CCCP 12.5 μM
Protocol: Tumor cell invasion: Experiments were carried out essentially as described (41). Briefly, 8 μm PET transwell migration chambers (Corning) were coated with 150 μl of 80 μg/ml Matrigel (Becton Dickinson). Tumor cells were seeded in duplicates onto the coated transwell filters at a density of 1.25×10^5 cells/well in media containing 2% FCS (FCIII, Hyclone) and media containing 20% FCS was placed in the lower chamber as chemoattractant. Cells were allowed to invade and adhere to the bottom of the plate stained in 0.5% crystal violet/methanol for 10 min, rinsed in tap water and analyzed by bright field microscopy. Digital images were batch imported into ImageJ, thresholded and analyzed with the Analyze particles function. For analysis of tumor cell invasion in 3D spheroids, tissue culture-treated 96-well plates were coated with 50 μl 1% DIFCO Agar Noble (Becton Dickinson). LN229 cells were seeded at 5,000 cells/well and allowed to form spheroids over 72 h. Spheroids were harvested, treated with PX-866 (0-10 µM) and placed in a collagen plug containing EMEM, FBS, L-Glutamine, sodium bicarbonate, and collagen type I (Gibco, 1.5 mg/ml). The collagen plug was allowed to set and 1 ml DMEM with 5% FBS was added to the top of the plug. Cell invasion was analyzed every 24 h and quantified using Image Pro Plus 7, as described^41.
Cell culture and drug treatment: Human GBM LN229, prostate adenocarcinoma PC3, lung carcinoma A549, and mouse fibroblasts NIH3T3 cells were obtained from the American Type Culture Collection (ATCC, Manassas, Va.), and maintained in culture according to the supplier's specifications. Conditioned media was prepared from exponentially growing cultures of NIH3T3 cells as previously described^41, in DMEM supplemented with 4.5 g/l D-glucose, sodium pyruvate, 10 mM HEPES and 10% FBS for 48 h. Where indicated, starvation was carried out in DMEM without glucose for 24 h. PI3K inhibitors were dissolved in DMSO at 10 mM and added to the culture media for 48 h at the following concentrations: AZD6482 at 10 μM, GCD0941 at 2 μM, BKM120 at 0.4 μM and PX-866 at 5 μM. mitoTEMPO was added to the culture media at 50-100 μM, NAC at […], Antimycin A at 30 μM, Oligomycin at 2.5 μM, Rotenone at 4 μM and CCCP at 12.5 μM. For invasions, the antioxidants, ROS scavengers, and ETC inhibitors were added to the top and bottom of the chambers at the moment of cell seeding.

PC3 cells [2] = assay: Mitochondrial localization by fluorescence microscopy; format: cell-based, human; conditions: for effect on mitochondrial repositioning to the cortical cytoskeleton in the presence of PI3K therapy: with PX-866, Antimycin A 30 μM, Oligomycin 2.5 μM, Rotenone 4 μM, CCCP 12.5 μM
Protocol: Mitochondrial localization. After the indicated transfections or treatments, cells were stained with MitoTracker Red CMXRos (100 nM, 2 h) at 37° C. After fixation with 4% formalin in PBS for 15 min at room temperature, cells were permeabilized with 0.1% Triton X-100/PBS for 5 min, washed, and incubated 30 min with 1% BSA/0.3M glycine/PBS. F-actin was stained with phalloidin Alexa488 (1:1000 dilution) for 30 min at room temperature. Slides were washed and mounted in DAPI-containing Prolong Gold mounting medium (Invitrogen). At least 7 random fields were analyzed by fluorescence microscopy in a Nikon E600 microscope. Composite images were analyzed in Image J, for each cell two lamellipodia were measured to calculate infiltration index, defined as the radial distance from nucleus to furthest mitochondrial string, normalized to the radial distance from nucleus to cell border. In parallel, all cells on the 7 fields were scored into 3 categories, according to gross localization of mitochondria: polarized, pen-nuclear, and infiltrating. For cortical mitochondria quantification, a mask was manually created around the periphery of the cell based on the F-actin channel and subsequently applied to the mitochondria channel to measure intensity at the cortical region (FIG. 8H). The intensity was normalized to total mitochondria intensity per cell and background subtracted. A minimum of 20 cells were analyzed in each independent experiment to obtain mean values. For high resolution imaging of mitochondria in MFN1-depleted cells, slides were sequentially scanned for red, green, and blue fluorescence by a Leica SP5 confocal microscope with a 63× objective and a 20× digital zoom. Full cell z stacks (about 5-8 μm) were postprocessed in Leica Application Suite Advanced Fluorescence (LAS AF) to reduce noise by applying a median filter (two iterations, radius 3) and used to generate max projections.

[3] = test system: patient-derived GBM neurospheres; assay: GBM neurosphere formation (number and size); format: cell-based, human; conditions: Gamitrinib 5 μM plus PX-866 10 μM, 48 h
Protocol: GBM neurospheres: Fresh GBM specimens collected from consenting patients (Division of Neurosurgery, Fondazione IRCCS Ca′ Granda, Milan, Italy) were immediately processed for the isolation of stem cell-containing neurospheres. Briefly, tissues were enzymatically processed with the Tumor Dissociation Kit (Miltenyi Biotech) at 37° C. in combination with the gentleMACS™ Dissociators (Miltenyi Biotech) until achievement of single cell suspension. Then, dissociated GBM cells were grown as spheroid aggregates (neurospheres) as previously described^43 and using the NeuroCult NS-A Proliferation media (StemCell Technologies) supplemented with 20 ng/ml EGF and 10 ng/ml bFGF (Stem Cell Technologies) according to manufacturer's protocol. When pharmacological treatment was performed, neurospheres derived from five GBM patients were mechanically dissociated, stained with PKH26 (Sigma Aldrich) as described^44, and plated at a density of 1000 cells per well in 24-well plates. The intended use of the non-toxic dye PKH26 was for live cell identification and staining. […] During this interval, neurospheres were imaged every 24 h and their size (diameter) and number was assessed by direct counting using ImageJ software. PKH26 was monitored and recorded using the TRITC fluorescent filter. Experiments were performed in duplicates. […]

PC3 cells [4] = assay: Focal adhesion (FA) complexes and mitochondria dual labeling; format: cell-based, human; conditions: non-toxic concentrations of Gamitrinib (1 μM), 48 h
Protocol: Focal adhesion (FA) complexes and mitochondria dual labeling. Coverslides were coated with fibronectin (10 μg/ml in PBS) overnight at 4° C., rinsed in PBS and equilibrated at 37° C. with 500 μl of 10% FBS/RPMI. Cells were treated as indicated, tripsinized, washed with 10% FBS/RPMI and plated on fibronectin-coated slides, in the presence of Mitotracker Red CMXRos (100 nM). After 5 h, cells were fixed with 10% formalin in PBS for 15 min at room temperature, permeabilized with 0.1% Triton X-100/PBS for 5 min, washed, and FAs were labeled with primary antibodies diluted in 1% BSA/0.3M glycine/PBS, overnight at 4° C. Either one of the following antibodies were used: rabbit anti-pY925-FAK (1:50, Cell Signaling), mouse anti-Paxillin (1:100, Upstate). Next, slides were washed, incubated with secondary antibodies (1:500, Alexa Fluor 488 conjugated) for 1 h at room temperature, washed and mounted in DAPI-containing Prolong Gold mounting medium (Invitrogen). Slides were sequentially scanned for red, green and blue fluorescence in a Leica SP5 confocal microscope with a 100× objective. Libraries were imported into LASLite and a 3 step z-stack centered at the plane of focal adhesions (±0.5 μm) were used to generate 3D max projections.

[5] = test system: patient-derived glioblastoma (GBM) organotypic cultures; assay: Kinome profiling (OpenArray real-time PCR) of GBM organotypic cultures; format: cell-based, human; conditions: PX-866 10 μM for 48 h vs vehicle
Protocol: (§1) Organotypic cultures: Short-term organotypic cultures from primary patient samples were established as described^13. Briefly, precise thick tissue slices (300 μm) were obtained by vibratome serial cutting (VT1200, Leica Microsystems, Milan, Italy), and cultured in six-well plates on organotypic inserts (Millicell PICM ORG, Merck Millipore) for up to 48 h in 1 ml of Ham-F12 complete medium supplemented with vehicle (DMSO, 2.5 μl) or pan-PI3K inhibitor […] (10 μM). At the end of the experiment, one tissue slice per condition was formalin-fixed and paraffin-embedded, and further processed for morphological and immunohistochemical analysis. An additional tissue slice was embedded in OCT, and snap-frozen for molecular or immunofluorescence studies.
Kinome profiling and bioinformatics analysis. Transcriptional changes in the human kinome following PI3K inhibition were analyzed using OpenArray real-time PCR amplification. […] The ΔΔCt method was used to calculate fold changes between sample pairs with endogenous control Ct value calculated as average among 15 endogenous controls on the array: ALAS1, B2M, CASC3, G6PD, GAPDH, GUSB, HMBS, HPRT1, IPO8, POLR2A, PPIA, RPLP0, TFRC, UBE2D2, and YWHAZ. The p values for differential expression were calculated using fold changes of 15 endogenous controls as a null distribution.

GBM organotypic cultures = assay: Human phospho-RTK array, GBM organotypic cultures; format: cell-based; conditions: primary organotypic cultures, PX-866 10 μM for 48 h
Protocol: (§2) The position and identity of phosphorylated proteins are indicated. M, markers.
as §1

GBM LN229 cells = assay: Human phospho-RTK array, LN229 cells; format: cell-based; conditions: PX-866 10 μM for 48 h
From the text: as §2

PC3 cells [6] = assay: Detection of mitochondrial superoxide in live cells (MitoSOX Red); format: cell-based, human; conditions: PX-866 48 h with mitoTEMPO
Protocol: Detection of mitochondrial superoxide in live cells. The production of superoxide by mitochondria was visualized in fluorescence microscopy using the MitoSOX™ Red reagent. Briefly, 1.5×10^4 cells were grown on high optical quality 8 well μ-slides (Ibidi) and imaged with a 40× objective on a Nikon TE300 inverted time-lapse microscope equipped with a video system containing an Evolution QEi camera and a time-lapse video cassette recorder. The atmosphere was equilibrated to 37° C. and 5% CO2 in an incubation chamber. Phase contrast and TRITC (TRITC filter cube, excitation wavelength: 532-554 nm, emission wavelength: 570-613 nm) images were captured. To quantitate superoxide levels, files were imported into Image J, masks were manually created around the periphery of the cell based on the Phase image and subsequently applied to the TRITC channel to measure intensity. A minimum of 100 cells were analyzed in each independent experiment to obtain mean values.

Molecule: CC[C@H]1/C=C/C=C/C[C@@H](C)[C@H](O)[C@@](C)(O)C(=O)[C@@H](C)[C@H](O)[C@@H](C)C(=O)[C@@H](C)[C@H](O)[C@@H](C)/C=C/C(=O)O[C@@H]2[C@H](C)[C@H](CC1)O[C@]1(CC[C@H](C)[C@H](C[C@@H](C)O)O1)[C@H]2C [Oligomycin]
- effect on tumor cell invasion in the presence of PI3K therapy (PC3 cells [1]): inhibited
- effect on mitochondrial repositioning to the cortical cytoskeleton in the presence of PI3K therapy (PC3 cells [2]): inhibited

Molecule: CC(=O)N[C@@H](CS)C(=O)O [NAC, N-acetyl cysteine]
- effect on PI3K therapy-mediated tumor cell invasion (PC3 cells [1]; increasing concentrations of NAC with PX-866 48 h, Matrigel): had no effect

Molecule: Gamitrinib
- effect on increase in tumor cell invasion mediated by PI3K antagonists (PC3 cells [1]; Gamitrinib with PX-866 5 μM, Matrigel): abolished the increase
- effect on expansion of primary GBM neurospheres mediated by PI3K antagonists [3]: abolished
- mitochondrial distribution (polarized, perinuclear, infiltrating) with PI3K inhibitors (PC3 cells [2]; Gamitrinib in combination with PI3K inhibitors): preserved a polarized and perinuclear mitochondrial distribution
- effect on trafficking of mitochondria to pFAK-containing FA complexes in response to PI3K antagonists (PC3 cells [4]): abolished

Molecule: C=CCN(/C=C1/C(=O)O[C@H](COC)[C@@]2(C)C1=C(O)C(=O)C1=C2[C@H](OC(C)=O)C[C@]2(C)C(=O)CC[C@@H]12)CC=C [PX-866]
- transcriptional changes of growth factor receptor pathways (kinome) [5]: transcriptional upregulation of multiple growth factor receptor pathways
- phosphorylation, i.e. activation of the GBM kinome (GBM organotypic cultures): widespread phosphorylation
- phosphorylation, i.e. activation of the GBM kinome (GBM LN229 cells): widespread phosphorylation

Molecule: carbonyl cyanide m-chlorophenyl hydrazine [CCCP]
- effect on tumor cell invasion in the presence of PI3K therapy (PC3 cells [1]): inhibited
- effect on mitochondrial repositioning to the cortical cytoskeleton in the presence of PI3K therapy (PC3 cells [2]): inhibited

Molecule: CC1(C)CC(NC(=O)C[P+](c2ccccc2)(c2ccccc2)c2ccccc2)CC(C)(C)N1[O] [mitoTEMPO]
- effect on tumor cell invasion mediated by PI3K inhibitors (PC3 cells [1]; mitoTEMPO with PX-866, Matrigel): did not affect
- effect on mitochondrial repositioning to the cortical cytoskeleton mediated by PI3K inhibitors (PC3 cells [2]; mitoTEMPO 50 μM with PI3K inhibitors): did not affect
- effect on PI3K antagonist-induced mitochondrial superoxide production (PC3 cells [6]): abolished

Molecule: Antimycin A
- effect on tumor cell invasion in the presence of PI3K therapy (PC3 cells [1]): inhibited
- effect on mitochondrial repositioning to the cortical cytoskeleton in the presence of PI3K therapy (PC3 cells [2]): inhibited

Molecule: C=C(C)[C@H]1Cc2c(ccc3c2O[C@@H]2COc4cc(OC)c(OC)cc4[C@@H]2C3=O)O1 [Rotenone]
- effect on tumor cell invasion in the presence of PI3K therapy (PC3 cells [1]): inhibited
- effect on mitochondrial repositioning to the cortical cytoskeleton in the presence of PI3K therapy (PC3 cells [2]): inhibited
